Earlier results on 2 compounds are cited in patent publication US20030056896A1, “Effective therapy for epilepsies” (priority 1995, published 2003).

Like-named read-outs stand apart in the source and are kept apart here.

As for `O=C1NC(=O)C(c2ccccc2)(c2ccccc2)N1` [phenytoin], the solubility result (gastrointestinal pH range of 1 to 8) was “practically insoluble”.
For the compound `NC(=O)N1c2ccccc2C=Cc2ccccc21` [carbamazepine], the solubility result (in water) is recorded as “practically insoluble in water”.
